Literature values, collected in patent US20120101390A1, “Multi-Modal Imaging for Diagnosis of Early Stage Epithelial Cancers” (priority 2010, published 2012).

Molecular target: T1, integrin αvβ3 (Homo sapiens, UniProt P05106+P06756)
T1 construct: integrin αvβ3-positive U87MG xenograft models; endogenous in cells; host or cells: U87MG (tumour xenograft)
Conditions: integrin αvβ3-positive U87MG xenograft models

T1 sequence (P06756 31-889 limits assumed): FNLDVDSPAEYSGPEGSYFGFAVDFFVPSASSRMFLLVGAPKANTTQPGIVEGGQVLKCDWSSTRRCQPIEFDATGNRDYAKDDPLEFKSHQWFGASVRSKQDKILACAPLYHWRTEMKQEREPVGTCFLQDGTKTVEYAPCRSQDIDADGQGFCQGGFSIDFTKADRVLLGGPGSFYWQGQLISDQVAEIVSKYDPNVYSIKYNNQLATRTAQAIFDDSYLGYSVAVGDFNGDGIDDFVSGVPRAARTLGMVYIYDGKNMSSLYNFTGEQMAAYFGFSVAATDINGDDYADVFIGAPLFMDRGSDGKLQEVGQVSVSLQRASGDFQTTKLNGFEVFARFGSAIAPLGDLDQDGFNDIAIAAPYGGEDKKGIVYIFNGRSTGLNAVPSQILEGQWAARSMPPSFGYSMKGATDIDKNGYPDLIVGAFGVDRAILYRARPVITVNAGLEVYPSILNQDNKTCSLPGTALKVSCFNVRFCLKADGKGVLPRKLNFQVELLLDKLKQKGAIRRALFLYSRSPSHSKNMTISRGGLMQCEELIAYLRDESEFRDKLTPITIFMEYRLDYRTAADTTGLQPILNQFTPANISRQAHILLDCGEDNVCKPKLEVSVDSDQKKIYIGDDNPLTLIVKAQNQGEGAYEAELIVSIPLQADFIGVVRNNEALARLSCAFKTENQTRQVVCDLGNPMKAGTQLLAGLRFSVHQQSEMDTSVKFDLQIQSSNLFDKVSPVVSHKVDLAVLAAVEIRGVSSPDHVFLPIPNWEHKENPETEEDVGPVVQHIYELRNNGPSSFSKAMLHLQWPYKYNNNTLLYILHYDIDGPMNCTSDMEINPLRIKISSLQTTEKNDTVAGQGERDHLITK
T1 sequence (P06756 891-1048 limits assumed): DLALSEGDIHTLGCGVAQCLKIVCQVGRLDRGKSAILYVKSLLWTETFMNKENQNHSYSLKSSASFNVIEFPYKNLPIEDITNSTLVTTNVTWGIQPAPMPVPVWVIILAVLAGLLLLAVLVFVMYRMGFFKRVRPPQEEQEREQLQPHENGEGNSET
T1 sequence (P05106 27-788): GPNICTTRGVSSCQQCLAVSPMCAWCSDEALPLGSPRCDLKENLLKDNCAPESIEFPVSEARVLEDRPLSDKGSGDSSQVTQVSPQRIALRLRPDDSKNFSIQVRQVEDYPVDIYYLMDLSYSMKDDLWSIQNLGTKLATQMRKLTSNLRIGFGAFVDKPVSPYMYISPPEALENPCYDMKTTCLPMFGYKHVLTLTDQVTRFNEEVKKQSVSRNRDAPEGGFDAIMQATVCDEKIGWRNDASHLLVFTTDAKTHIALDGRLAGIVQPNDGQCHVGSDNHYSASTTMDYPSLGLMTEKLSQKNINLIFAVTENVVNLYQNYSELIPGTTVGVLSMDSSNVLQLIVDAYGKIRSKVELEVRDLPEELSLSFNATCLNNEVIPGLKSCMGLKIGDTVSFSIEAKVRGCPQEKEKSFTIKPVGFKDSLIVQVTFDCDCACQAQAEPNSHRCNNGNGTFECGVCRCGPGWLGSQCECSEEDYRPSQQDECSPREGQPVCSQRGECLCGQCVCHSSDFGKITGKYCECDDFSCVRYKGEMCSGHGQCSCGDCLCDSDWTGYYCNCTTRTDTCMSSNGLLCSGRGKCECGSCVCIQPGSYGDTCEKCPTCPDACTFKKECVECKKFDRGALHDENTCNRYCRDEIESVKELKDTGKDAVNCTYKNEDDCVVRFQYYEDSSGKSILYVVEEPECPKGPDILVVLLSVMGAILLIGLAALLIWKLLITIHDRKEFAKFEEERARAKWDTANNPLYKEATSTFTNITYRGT

Row | Substance | binding relative to the monomeric counterpart
1 | E-{G-[c(RGDfK)]2}2 | stronger binding
2 | E-[G-G-G-c(RGDfK)]2 | stronger binding
3 | E-[c(RGDfK)]2 | stronger binding
